From paper PMC6271245, “Discovery of Gramine Derivatives That Inhibit the Early Stage of EV71 Replication in Vitro” (Molecules, 2014)
In brackets after ≈: the same amount, converted by molar mass. Read-outs that look alike come from different tables or passages of the source.

Tests used:
[1] = tested on: EV71; experiment: Analysis of effective stage (treatment before, during or post infection) in RD cells; type: cell-based, Enterovirus 71; conditions: for titers of virus from infected cells, treatment before infection (preventive effect): RD cells pretreated 2 h with 10 µg/mL 4a, 20 µg/mL 4i, 40 µg/mL 4r or 4s, 48 h; for inhibition of virus-induced CPEs, post-infection treatment: up to 40 µg/mL
Procedure: To identify the step in the viral life cycle that is affected by these compounds, the assays were performed using three different treatment protocols. […] For all treatments, cell viability and progeny virus yields were measured after 48 h of infection.
Figure 2 Analysis of modes of action against EV71 of gramine derivatives. Analysis of effective stage. The RD cells were treated with tested compounds before, simultaneously or after EV71 (100 TCID50) inoculation: antiviral effects were detected by measuring (A) cell viability and (B) progeny virus yields (10 µg/mL 4a, 20 µg/mL 4i, 40 µg/mL 4r and 4s) 48 h post infection; (C) Analysis of the effects on EV71 adsorption. Mock- or 10 µg/mL 4a, 20 µg/mL 4i, 40 µg/mL 4r and 4s-treated EV71 (10^4 TCID50) was spinoculated onto RD cells and adsorbed for 2 h; intracellular virus was subjected to titration using the TCID50 method; (D) Effects on EV71 release from RD cells. RD cells infected with 100 TCID50 of EV71 were incubated with 10 µg/mL 4a, 20 µg/mL 4i, 40 µg/mL 4r and 4s for 12 h, of both cells and supernatants (intra- and extracellular), or of cells or supernatants harvested separately for virus titration. […] Values represent the mean ± standard deviation of three independent experiments.
(§1) Cell viability was assessed by an MTT assay, which functions based on the reduction of a MTT into formazan dye by active mitochondria. The cells were treated with 100 µL of MTT (1 mg/mL, Sigma, St. Louis, MO, USA) and incubated at 37 °C for 4 h. The reaction was blocked by DMSO and measured in a microplate reader (Bio-Tek Instruments, Winooski, VT, USA) at 492 nm. The untreated control was arbitrarily set as 100%.
The virus suspension, serially diluted 10-fold with DMEM containing 2% FBS, was inoculated to cells in a 96-well plate. After 1 h incubation at 37 °C in 5% CO2, unbinding virus was washed out and MM was added to the cells. After 2 days, the infected cells were monitored for cytopathic effects (CPEs). The virus titer was calculated by the Reed–Muench method.

[2] = tested on: EV71; experiment: Time-of-addition assay, progeny virus yield; type: cell-based, Enterovirus 71; conditions: compound present -1-10 h pi (similar for 0–10 h and 2–10 h); 10 µg/mL 4a, 20 µg/mL 4i, 40 µg/mL 4r or 4s; RD cells; 12 h pi
Procedure: To further understand the mechanisms of these gramine derivatives against EV71 propagation in cells, a time-of-addition experiment was performed. For this experiment, 10 µg/mL 4a, 20 µg/mL 4i, or 40 µg/mL 4r or 4s were added to infected cultures at different time periods (with 2 h intervals) and the reductions in virus yield relative to untreated cultures were determined at 12 h pi. […] With drugs treatments during other periods after EV71 infection, a gradual increase of viral yields was observed, reflecting the loss of the antiviral effects of the compounds. Results from this experiment indicate that these gramine derivatives may exert antiviral effects via the same action mechanism and mainly interfere with the early events of virus replication.
Figure 3 Time-of-addition assay. 10 µg/mL 4a, 20 µg/mL 4i, or 40 µg/mL 4r or 4s were added to RD cells at different time periods after EV71 infection. At 12 h pi, the progeny virus yield was determined (−1–0 h: viral infection period; 0–10 h: period for virus proliferation in the cells). Values are represented as the mean ± standard deviation.
Time-of-addition experiments were carried out, to estimate the point where the compound interfered with the replication cycle of EV71. The RD cells were infected with 100 TCID50 of EV71 and then 10 µg/mL 4a, 20 µg/mL 4i, or 40 µg/mL 4r or 4s was added at different time phases (−1–0 h, 0–10 h, 2–10 h, 4–10 h, 6–10 h, 8–10 h and −1–10 h pi, where −1–0 h is the viral infection period and 0–10 h is the period for virus proliferation in the cells). The cells and supernatants were harvested at […] and subjected to three freeze–thaw cycles, after which the viruses were titered by the Reed-Muench method.

[3] = Cytotoxicity on uninfected RD cells, MTT; type: cell-based; conditions: human, concentration reducing cell viability by 50%
Procedure: Human RD cells and Vero cells were maintained in Dulbecco’s modified Eagle’s medium (Gibco-Invitrogen, Carlsbad, CA, USA) supplemented with 10% fetal bovine serum (FBS; Gibco), 100 U/mL of penicillin and streptomycin, and 2 mM L-glutamine. Enterovirus 71 (EV71) was kindly provided by Zhanqiu Yang (Institute of Medical Virology, School of Medicine, Wuhan University, China) and propagated in RD cell lines. The virus titer was determined by the standard method of median tissue culture infective dose (TCID50) on RD cells.
(§2) The activity of compounds against EV71 was determined based on the inhibition of virus-induced cytopathogenicity effects (CPEs) in acutely infected cells. Vero and RD cells grown to 90% confluency in 96-well dishes were washed with phosphate buffered saline (PBS) and infected with 100 TCID50 of EV71 mixed with serial dilutions of tested compounds for 1.5 h at 37 °C. The inoculum was aspirated and cells were incubated with DMEM and test compounds at 37 °C, 5% CO2 for 48 h. The CPEs were observed microscopically and the viability of the cells was determined with a 3-(4,5-dimethylthiazol-2-yl)-2,5-diphenyltetrazolium bromide (MTT) assay. The concentrations required for the test compounds to achieve 50% protection from virus-induced cytopathogenicity (EC50) were determined. Adverse effects of these compounds on the host cells were also assessed by means of the MTT-method; by exposing uninfected cells to various concentrations of test compounds for 48 h at 37 °C, the viability of the cells was detected. The 50% cell cytotoxic concentrations (CC50) of compounds were calculated with the SPSS software (SPSS, Chicago, IL, USA). Selectivity indexes were calculated as the ratio of CC50: EC50.
as §1

[4] = Cytotoxicity on uninfected Vero cells, MTT; type: cell-based; conditions: African green monkey; concentration reducing cell viability by 50%; uninfected Vero cells, 48 h, MTT; read-out: CC50 (µg/mL) Vero
Procedure: (§3) The antiviral activities of gramine and its derivatives against EV71 based on inhibition of virus-induced cytopathogenicity effects (CPEs) in African green monkey kidney cells (Vero) and rhabdomyosarcoma cells (RD) were examined. The cytotoxic effects were also evaluated. The inhibitory activities expressed as half maximal effective concentration (EC50) values and selectivity indexes (SI) for the target compounds are presented in Table 1, and the dose-dependent antiviral effects are shown in Figure 1A.
as §2, §1

[5] = tested on: Enterovirus 71 (EV71); experiment: Inhibition of EV71-induced cytopathogenicity (CPE) in RD cells, MTT; type: cell-based; conditions: for EC50: Enterovirus A, read-out: EC50 (µg/mL) RD; for inhibition of virus-induced CPE (morphology): 10 µg/mL 4a, 20 µg/mL 4i, 40 µg/mL 4r or 4s, 48 h pi
Procedure: as §3, §2, §1

[6] = concentration for 50% protection from virus-induced cytopathogenicity, RD cells, 100 TCID50 EV71, 48 h, MTT
[7] = Enterovirus A, RD cells, 100 TCID50 EV71, 48 h, MTT, read-out: viability rate of infected cells, post-infection treatment

Row | SMILES | viability at 10 µg/mL ([1]; Enterovirus A, 10 µg/mL, RD cells, 100 TCID50 EV71, 48 h, MTT, read-out: viability rate of infected cells, post-infection treatment) | titers of virus from infected cells, treatment before infection (preventive effect) [1] | inhibition of CPEs, post-infection treatment ([1]; at 40 µg/mL and 20 µg/mL, due to cytotoxic effects on cells) | titers of the progeny virus, time of addition [2] | CC50 at 48 h [3] | CC50 at 48 h [4] | EC50 [5, 6] | inhibition of virus-induced CPE (morphology) ([5]; RD cells) | viability at 40 µg/mL [1, 7] | inhibition of virus-induced CPEs, post-infection treatment ([1]; RD cells) | viability at 20 µg/mL ([1]; Enterovirus A, 20 µg/mL, RD cells, 100 TCID50 EV71, 48 h, MTT, read-out: viability rate of infected cells, post-infection treatment) | EC50 ([5]; EV71, RD, 48 h)
1 | c1ccc(C(Nc2ccccn2)c2c[nH]c3ccccc23)cc1 (stereo not shown) [Compound 4a] | 85.8% | nearly the same as those from untreated cells | no inhibition of CPEs | strongly reduced | 17.2 ± 1.6 µg/mL (≈ 57.5 µM) | 32.6 ± 3.5 µg/mL (≈ 109 µM) | 5.5 ± 2.4 µg/mL (≈ 18.4 µM) | nearly complete inhibition of CPE | – | – | – | –
2 | Cn1cc(C(Nc2nc3ccccc3s2)c2ccccc2F)c2ccccc21 (stereo not shown) [Compound 4r] | – | nearly the same as those from untreated cells | – | strongly reduced | 150 ± 16.2 µg/mL (≈ 387 µM) | 132 ± 8.3 µg/mL (≈ 342 µM) | 7.3 ± 1.3 µg/mL (≈ 18.8 µM) | nearly complete inhibition of CPE | 84.6% | almost completely inhibited virus-induced CPEs | – | –
3 | Cn1cc(C(Nc2ccccn2)c2ccc(F)cc2)c2ccccc21 (stereo not shown) [Compound 4i] | – | nearly the same as those from untreated cells | – | strongly reduced | 65.2 ± 7.6 µg/mL (≈ 197 µM) | 71.1 ± 3.8 µg/mL (≈ 215 µM) | 6.1 ± 3.2 µg/mL (≈ 18.4 µM) | nearly complete inhibition of CPE | – | – | 90.5% | –
4 | c1ccc(C(Nc2nc3ccccc3s2)c2c[nH]c3ccccc23)nc1 (stereo not shown) [Compound 4s] | – | nearly the same as those from untreated cells | – | strongly reduced | 137 ± 9.3 µg/mL (≈ 383 µM) | 109 ± 16.8 µg/mL (≈ 305 µM) | – | nearly complete inhibition of CPE | 95.7% | almost completely inhibited virus-induced CPEs | – | 9.1 ± 3.1 µg/mL (≈ 25.5 µM)
